Results from article PMC3958129, “Enzyme kinetics and distinct modulation of the protein kinase N family of kinases by lipid activators and small molecule inhibitors” (Bioscience Reports, 2014).
Read-outs that look alike come from different tables or passages of the source. One block for each compound: values may come before it.

Legend:
PKN1 [1] = biological target: T1, PKN1 (Homo sapiens, UniProt Q16512); experiment: PKN1 kinase inhibition, off-chip mobility shift assay; assay type: biochemical; design: Full-length, FLAG-tagged human PKN1, PKN2 and PKN3 were expressed in mammalian HEK-293 cells; host or cells: HEK-293 (transient transfection, pcDNA4/TO)
T1 sequence (Q16512 whole entry): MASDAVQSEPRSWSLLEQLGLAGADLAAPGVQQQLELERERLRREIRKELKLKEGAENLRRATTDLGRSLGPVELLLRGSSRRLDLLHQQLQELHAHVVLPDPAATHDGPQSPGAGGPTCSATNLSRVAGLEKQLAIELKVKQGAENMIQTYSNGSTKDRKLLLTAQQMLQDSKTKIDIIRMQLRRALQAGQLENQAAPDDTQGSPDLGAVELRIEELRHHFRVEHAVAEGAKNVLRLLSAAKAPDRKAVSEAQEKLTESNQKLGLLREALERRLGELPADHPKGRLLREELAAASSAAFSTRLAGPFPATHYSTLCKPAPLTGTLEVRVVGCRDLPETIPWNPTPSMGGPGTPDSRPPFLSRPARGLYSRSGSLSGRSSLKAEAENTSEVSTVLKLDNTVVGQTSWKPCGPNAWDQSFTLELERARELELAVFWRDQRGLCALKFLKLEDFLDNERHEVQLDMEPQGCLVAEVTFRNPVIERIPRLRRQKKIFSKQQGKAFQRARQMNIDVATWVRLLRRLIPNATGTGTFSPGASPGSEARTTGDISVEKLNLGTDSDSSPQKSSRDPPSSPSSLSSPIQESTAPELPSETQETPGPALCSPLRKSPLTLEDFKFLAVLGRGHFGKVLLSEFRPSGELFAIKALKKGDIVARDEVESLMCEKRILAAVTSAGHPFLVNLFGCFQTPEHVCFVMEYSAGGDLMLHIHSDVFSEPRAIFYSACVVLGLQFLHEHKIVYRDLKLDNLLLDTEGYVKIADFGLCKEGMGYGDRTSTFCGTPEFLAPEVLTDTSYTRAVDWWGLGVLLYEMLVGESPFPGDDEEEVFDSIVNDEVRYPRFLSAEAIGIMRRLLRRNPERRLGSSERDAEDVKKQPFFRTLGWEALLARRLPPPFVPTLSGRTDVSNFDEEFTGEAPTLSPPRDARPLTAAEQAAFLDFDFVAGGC
Method: (§4) The activity of all PKN proteins was monitored through the use of a highly sensitive off-chip mobility shift assay utilizing a LabChip EZ Reader II instrument (Caliper Life Sciences/PerkinElmer); this assay format has been described elsewhere [31]. […] Peptide concentration was adjusted according to purity and peptide content. For inhibition studies, the inhibitor was pre-incubated with enzyme for 15 min at room temperature. All reactions were initiated with ATP and conducted at room temperature (~22°C).
(§5) All data were globally fit using non-linear regression and GraphPad Prism software. Non-linear data were converted to double-reciprocal Lineweaver–Burk plots for visual and presentation purposes only. Kinetic data were analysed in duplicate, and each plot is representative of at least two independent experiments.
(§6) For enzyme inhibition studies, data were fit to eqns (2)–(4) for competitive, non-competitive and uncompetitive inhibition, respectively: (2) v=Vmax[S]/[S]+KM1+[I]/Ki (3) v=Vmax[S]/([S]+KM)1+[I]/Ki (4) v=Vmax[S]/[S]1+[I]/αKi+KM
(§7) For eqns (1)–(4), v is measured velocity, Vmax is maximum velocity, [ATP], [Pep] and [S] are concentrations of ATP, peptide and varied substrate, respectively; Kia is the equilibrium dissociation constant of ATP, KM,ATP, KM,Pep and KM are the Michaelis–Menten constants for ATP, peptide and the varied substrate, respectively. [I] is the inhibitor concentration, α describes the preference for inhibitor binding to either free or substrate bound enzyme and Ki is the inhibitor equilibrium dissociation constant.

PKN2 [2] = biological target: T2, PKN2 (Homo sapiens, UniProt Q16513); experiment: PKN2 kinase inhibition, off-chip mobility shift assay; assay type: biochemical; design: Full-length, FLAG-tagged human PKN1, PKN2 and PKN3 were expressed in mammalian HEK-293 cells; host or cells: HEK-293 (transient transfection, pcDNA4/TO)
T2 sequence (Q16513 whole entry): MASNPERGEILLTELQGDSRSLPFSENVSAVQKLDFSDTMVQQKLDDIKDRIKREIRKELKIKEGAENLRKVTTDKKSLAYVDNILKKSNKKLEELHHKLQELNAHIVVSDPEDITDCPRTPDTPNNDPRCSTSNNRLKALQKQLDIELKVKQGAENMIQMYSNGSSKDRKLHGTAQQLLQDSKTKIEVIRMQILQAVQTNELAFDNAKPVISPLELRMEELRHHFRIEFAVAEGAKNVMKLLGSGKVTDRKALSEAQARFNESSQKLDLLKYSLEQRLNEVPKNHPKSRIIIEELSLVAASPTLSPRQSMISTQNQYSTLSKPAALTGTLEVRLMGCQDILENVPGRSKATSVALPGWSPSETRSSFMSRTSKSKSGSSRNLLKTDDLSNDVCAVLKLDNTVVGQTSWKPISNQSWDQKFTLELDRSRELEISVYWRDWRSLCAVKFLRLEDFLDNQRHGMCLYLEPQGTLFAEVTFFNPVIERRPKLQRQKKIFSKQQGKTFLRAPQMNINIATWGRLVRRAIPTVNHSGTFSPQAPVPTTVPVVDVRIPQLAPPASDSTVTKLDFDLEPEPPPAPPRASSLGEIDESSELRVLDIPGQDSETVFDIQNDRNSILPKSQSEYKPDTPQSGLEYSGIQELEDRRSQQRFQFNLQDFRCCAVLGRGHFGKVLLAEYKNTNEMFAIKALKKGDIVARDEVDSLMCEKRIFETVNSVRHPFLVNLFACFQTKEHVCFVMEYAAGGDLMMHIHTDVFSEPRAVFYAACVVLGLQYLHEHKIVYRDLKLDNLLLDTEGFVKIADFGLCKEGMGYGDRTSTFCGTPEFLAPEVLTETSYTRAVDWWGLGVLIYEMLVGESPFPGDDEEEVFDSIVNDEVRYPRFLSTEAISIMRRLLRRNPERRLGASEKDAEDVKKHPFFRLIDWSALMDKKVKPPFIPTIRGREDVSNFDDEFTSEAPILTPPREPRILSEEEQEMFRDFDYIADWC
Method: as §4, §5, §6, §7

PKN3 [3] = biological target: T3, PKN3 (Homo sapiens, UniProt Q6P5Z2); experiment: PKN3 kinase inhibition, off-chip mobility shift assay; assay type: biochemical; design: Full-length, FLAG-tagged human PKN1, PKN2 and PKN3 were expressed in mammalian HEK-293 cells
T3 sequence (Q6P5Z2 whole entry, canonical isoform): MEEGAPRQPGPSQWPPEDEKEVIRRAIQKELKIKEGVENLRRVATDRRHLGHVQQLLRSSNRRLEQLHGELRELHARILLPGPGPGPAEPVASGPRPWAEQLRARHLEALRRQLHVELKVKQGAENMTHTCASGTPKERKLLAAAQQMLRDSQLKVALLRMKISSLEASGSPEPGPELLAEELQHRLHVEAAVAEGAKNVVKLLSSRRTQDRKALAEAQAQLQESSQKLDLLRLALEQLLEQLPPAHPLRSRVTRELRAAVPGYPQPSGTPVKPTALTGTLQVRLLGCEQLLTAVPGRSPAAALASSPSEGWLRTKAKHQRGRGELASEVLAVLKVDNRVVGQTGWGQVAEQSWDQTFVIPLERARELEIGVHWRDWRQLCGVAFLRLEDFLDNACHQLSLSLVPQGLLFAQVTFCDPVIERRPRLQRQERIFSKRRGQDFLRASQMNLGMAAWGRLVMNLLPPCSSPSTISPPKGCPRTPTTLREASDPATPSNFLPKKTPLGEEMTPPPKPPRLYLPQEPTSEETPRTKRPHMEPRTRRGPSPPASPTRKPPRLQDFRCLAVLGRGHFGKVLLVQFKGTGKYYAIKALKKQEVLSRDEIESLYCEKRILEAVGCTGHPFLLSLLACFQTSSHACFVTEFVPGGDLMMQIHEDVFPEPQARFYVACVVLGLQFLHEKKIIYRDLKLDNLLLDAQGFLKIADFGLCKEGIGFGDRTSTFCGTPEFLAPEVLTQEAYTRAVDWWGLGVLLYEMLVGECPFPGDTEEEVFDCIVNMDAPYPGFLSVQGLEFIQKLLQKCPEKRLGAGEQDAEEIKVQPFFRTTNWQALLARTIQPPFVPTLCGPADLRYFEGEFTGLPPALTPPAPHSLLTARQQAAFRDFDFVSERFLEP
Method: as §4, §5, §6, §7

PKN1, PKN2 and PKN3 = experiment: PKN isoform selectivity from Ki values (Ki ratio); assay type: biochemical, human; details: for Isoform selectivity: isoform(s) preferred, defined as ~10-fold or greater Ki ratio
Text: The activity of all PKN proteins was monitored through the use of a highly sensitive off-chip mobility shift assay utilizing a LabChip EZ Reader II instrument (Caliper Life Sciences/PerkinElmer); this assay format has been described elsewhere [31]. […] The likely site of phosphorylation is underlined, as determined through comparison with the published phosphorylation consensus sequence for PKN1 and PKN3 substrates [27]. […] Peptide concentration was adjusted according to purity and peptide content. For inhibition studies, the inhibitor was pre-incubated with enzyme for 15 min at room temperature. All reactions were initiated with ATP and conducted at room temperature (~22°C).

PKN3 [4] = biological target: T3, PKN3; experiment: Lipid activation of PKN3 kinase activity, off-chip mobility shift assay; assay type: biochemical; design: Full-length, FLAG-tagged human PKN1, PKN2 and PKN3 were expressed in mammalian HEK-293 cells; details: increase in initial rate; saturating ATP (500 μM), 3 μM peptide, 3 nM PKN3
Method: (§1) Lipids were supplied as a solid powders, ethanol, or chloroform solutions. All solids were dissolved directly into assay buffer and briefly water bath sonicated at room temperature for 10 min. Lipids supplied as solutions in organic solvent were dried under a gentle stream of nitrogen, resuspended in assay buffer, and similarly sonicated. All lipids were prepared fresh daily.
(§2) The activity of all PKN proteins was monitored through the use of a highly sensitive off-chip mobility shift assay utilizing a LabChip EZ Reader II instrument (Caliper Life Sciences/PerkinElmer); this assay format has been described elsewhere. Kinase activity was monitored through the phosphorylation of a 5-FAM-labelled PKN substrate peptide found through Pfizer in-house optimization efforts and derived from the amino acid sequence of GSK3α (accession no. AAH51865.1) with the following sequence: 5-FAM-C6-[…]-NH2. The likely site of phosphorylation is underlined, as determined through comparison with the published phosphorylation consensus sequence for PKN1 and PKN3 substrates. Reaction buffer contained 25 mM Tris, pH 8.0, 5 mM MgCl2, 0.002% CHAPS and 2 mM DTT, with indicated protein, ATP and peptide concentrations. Peptide concentration was adjusted according to purity and peptide content. For inhibition studies, the inhibitor was pre-incubated with enzyme for 15 min at room temperature. All reactions were initiated with ATP and conducted at room temperature (~22°C). Reactions were terminated by the addition of EDTA, pH 8.0, at a final concentration of 25 mM. All reaction rates were determined to be linear with respect to time and enzyme concentration where no more than 20% of peptide substrate had been converted to product. Aliquots of each reaction were transferred in duplicate to a 384-well plate and analysed on a LabChip EZ Reader II with separation buffer containing 100 mM Hepes, pH 7.5, 0.015% Brij-35, 1 mM EDTA, 0.1% CR3 coating reagent, 1×CR8 coating reagent and 5% DMSO, with the following settings: downstream voltage: −500 V, upstream voltage: −2300 V, base pressure: −0.5 psi; screen pressure: −1.7 psi.
Ki values for representative inhibitors were determined by fitting initial reaction velocities to eqn (2) for competitive inhibition using the method of non-linear least-squares using GraphPad Prism. Turnover number (kcat) was calculated by normalizing Vmax values for enzyme concentration.
(§3) Figure 2 PKN responses to lipid activators in biochemical assays Lipids were prepared as described under the Experimental section, and kinase activity of PKN isoforms was measured using off-chip mobility shift assay described in the Methods section. Each lipid was titrated in the presence of 1 nM, 5 nM and 3 nM PKN1–3, respectively, 3 μM peptide and 500 μM ATP. vi is the initial rate at each concentration of lipid activator and vo is the initial rate in the absence of lipid.

PKN2 [5] = biological target: T2, PKN2; experiment: Lipid activation of PKN2 kinase activity, off-chip mobility shift assay; assay type: biochemical; design: Full-length, FLAG-tagged human PKN1, PKN2 and PKN3 were expressed in mammalian HEK-293 cells; host or cells: HEK-293 (transient transfection, pcDNA4/TO); details: for PKN2 Maximal fold activation: increase in initial rate; for effect on PKN2 kinase activity: in words, saturating ATP
Method: as §1
as §2, with “psi. […]” for “psi.”
as §3

PKN1 [6] = biological target: T1, PKN1; experiment: Lipid activation of PKN1 kinase activity, off-chip mobility shift assay; assay type: biochemical; design: Full-length, FLAG-tagged human PKN1, PKN2 and PKN3 were expressed in mammalian HEK-293 cells; host or cells: HEK-293 (transient transfection, pcDNA4/TO); details: saturating ATP (500 μM), 3 μM peptide, 1 nM PKN1; for PKN1 Maximal fold activation: increase in initial rate; for EC50: lipid activator
Method: as §1
as §2, with “psi. […]” for “psi.”
as §3

[7] = absence of lipids, fit to competitive inhibition, ±S.D., n=2, read-out: PKN3, Ki
[8] = absence of lipids, fit to competitive inhibition, ±S.D., n=2, read-out: PKN2, Ki
[9] = absence of lipids, fit to competitive inhibition, ±S.D., n=2, read-out: PKN1, Ki
[10] = saturating ATP (500 μM), 3 μM peptide, 5 nM PKN2

Compound: Nc1ncnc2c1ncn2[C@@H]1O[C@H](COP(=O)(O)OP(=O)(O)O)[C@@H](O)[C@H]1O [ADP]
Ki (PKN1 [1]; product inhibition, competitive with respect to ATP, 3 μM peptide, 31–1000 μM ATP, 1 nM enzyme, 100 μM arachidonic acid, read-out: PKN1 Ki): 53000 ± 4000 nM | Ki (PKN1 [1]; product inhibition, non-competitive with respect to peptide, 50 μM ATP, 0.3–10 μM peptide, 1 nM enzyme, 100 μM arachidonic acid, read-out: PKN1 Kiapp): 170000 ± 14000 nM | Ki (PKN2 [2]; product inhibition, competitive with respect to ATP, 2 μM peptide, 6–200 μM ATP, 2 nM enzyme, 100 μM arachidonic acid, read-out: PKN2 Ki): 26000 ± 4000 nM | Ki (PKN2 [2]; product inhibition, non-competitive with respect to peptide, 20 μM ATP, 0.3–10 μM peptide, 2 nM enzyme, 100 μM arachidonic acid, read-out: PKN2 Kiapp): 65000 ± 5000 nM | Ki (PKN3 [3]; product inhibition, competitive with respect to ATP, 5 μM peptide, 7.8–250 μM ATP, 4 nM enzyme, 5 μM arachidonic acid, read-out: PKN3 Ki): 69000 ± 5000 nM | Ki (PKN3 [3]; product inhibition, non-competitive with respect to peptide, 50 μM ATP, 0.9–30 μM peptide, 4 nM enzyme, 5 μM arachidonic acid, read-out: PKN3 Kiapp): 320000 ± 12000 nM

Compound: CO[C@@H]1[C@H](N(C)C(=O)c2ccccc2)C[C@H]2O[C@]1(C)n1c3ccccc3c3c4c(c5c6ccccc6n2c5c31)C(=O)NC4 [Compound 1, PKC412]
Ki (PKN3 [3]; [7]): < 0.2 nM

Compound: Cn1cc(C2=C(c3cn(CCCSC(=N)N)c4ccccc34)C(=O)NC2=O)c2ccccc21 [Compound 2, Ro 31-8220]
Ki (PKN2 [2]; [8]): 17 ± 2 nM | Ki (PKN3 [3]; [7]): 170 ± 10 nM

Compound: CN(C)CCCn1cc(C2=C(c3c[nH]c4ccccc34)C(=O)NC2=O)c2ccccc21 [Compound 3, GF 109203X]
Ki (PKN1 [1]; [9]): 79 ± 8 nM | Ki (PKN2 [2]; [8]): 90 ± 20 nM | Ki (PKN3 [3]; [7]): 2300 ± 500 nM | selectivity for PKN1/2 over PKN3 (PKN1, PKN2 and PKN3; from Ki values): at least 25 fold | Isoform selectivity (PKN1, PKN2 and PKN3): PKN1/2

Compound: O=C1Nc2ccc3ncsc3c2/C1=C/c1c[nH]cn1 [Compound 5, PKR inhibitor]
Ki (PKN1 [1]; [9]): 410 ± 50 nM | Ki (PKN2 [2]; [8]): 41 ± 7 nM | Ki (PKN3 [3]; [7]): 240 ± 30 nM | Isoform selectivity (PKN1, PKN2 and PKN3): PKN2

Compound: Nc1nc(Nc2ccc(S(N)(=O)=O)cc2)nn1C(=S)Nc1c(F)cccc1F [Compound 6, CDK1/2 inhibitor III]
Ki (PKN1 [1]; [9]): 220 ± 20 nM | Ki (PKN2 [2]; [8]): 12 ± 2 nM | Ki (PKN3 [3]; [7]): 34 ± 2 nM | selectivity for PKN2 over PKN1 (PKN1, PKN2 and PKN3; from Ki values): 18 fold | selectivity for PKN2 over PKN3 (PKN1, PKN2 and PKN3; in words): only minimal selectivity | Isoform selectivity (PKN1, PKN2 and PKN3): PKN2/3

Compound: Oc1ccc(-c2nc(-c3ccncc3)c(-c3ccc(F)cc3)[nH]2)cc1 [Compound 9, SB-202190]
Ki (PKN1 [1]; [9]): > 5000 nM | Ki (PKN2 [2]; [8]): 2300 ± 400 nM | Ki (PKN3 [3]; [7]): 4 ± 0.3 nM

The remaining lines, values ahead:

Ki (PKN1 [1]; [9]): 1800 ± 300 nM | Ki (PKN2 [2]; [8]): 1800 ± 300 nM | Ki (PKN3 [3]; [7]): 10 ± 2 nM
Compound: CNCCNS(=O)(=O)c1cccc2cnccc12 [Compound 10, H-8]

Ki (PKN1 [1]; [9]): 2900 ± 700 nM | Ki (PKN2 [2]; [8]): > 5000 nM
Compound: CN(C(Cc1ccc(OS(=O)(=O)c2cccc3cnccc23)cc1)C(=O)N1CCN(c2ccccc2)CC1)S(=O)(=O)c1cccc2cnccc12 (stereo not shown) [Compound 11, KN62]

Ki (PKN1 [1]; [9]): 800 ± 100 nM
Compound: O=S(=O)(c1cccc2cnccc12)N1CCCNCC1 [Compound 12, HA-1077]

PKN3 Maximal fold activation (PKN3 [4]): <2 fold | PKN2 Maximal fold activation (PKN2 [5]; [10]): <2 fold | PKN1 Maximal fold activation (PKN1 [6]): <2 fold
Compound: CCCCCCCC(=O)OC[C@H](CO)OC(=O)CCCCCCC [DAG, 1,2-dioctanoyl-sn-glycerol]

PKN3 Maximal fold activation (PKN3 [4]): <2 fold | PKN2 Maximal fold activation (PKN2 [5]; [10]): <2 fold | PKN1 Maximal fold activation (PKN1 [6]): <2 fold
Compound: O=P(O)(O)O[C@@H]1[C@H](O)[C@H](O)[C@@H](OP(=O)(O)O)[C@H](OP(=O)(O)O)[C@H]1O [IP3, D-myo-inositol-1,3,5-triphosphate]

Ki (PKN3 [3]; competitive with respect to peptide substrate, 250 μM ATP, 0.9–30 μM peptide, 4 nM enzyme, 5 μM arachidonic acid, read-out: PKN3 Ki with respect to peptide substrate): 5400 nM | PKN3 αKi with respect to ATP (PKN3 [3]; uncompetitive with respect to ATP, 6 μM peptide, 7.8–250 μM ATP, 4 nM enzyme, 5 μM arachidonic acid): 1.3 µM
Compound: H-PRLQRQERIFSKRRG-OH [PKN3-PRL]

PKN3 Maximal fold activation (PKN3 [4]): <2 fold | effect on PKN2 kinase activity (PKN2 [5]): not affected | PKN2 Maximal fold activation (PKN2 [5]; [10]): <2 fold | PKN1 Maximal fold activation (PKN1 [6]): 15 fold | PKN1 Maximal fold activation (PKN1 [6]; listed as phosphatidylserine): 10–16 fold | EC50 (PKN1 [6]): 3000 ± 1000 nM
Compound: Phosphatidylserine

PKN3 Maximal fold activation (PKN3 [4]): <2 fold | effect on PKN2 kinase activity (PKN2 [5]): not affected | PKN2 Maximal fold activation (PKN2 [5]; [10]): <2 fold | PKN1 Maximal fold activation (PKN1 [6]): 11 fold | EC50 (PKN1 [6]): 2000 ± 1000 nM
Compound: phosphatidylinositol-3,4,5-triphosphate [PIP3]

PKN3 Maximal fold activation (PKN3 [4]): <2 fold | effect on PKN2 kinase activity (PKN2 [5]): increased | PKN2 Maximal fold activation (PKN2 [5]; [10]): 7 fold | EC50 (PKN2 [5]; lipid activator, saturating ATP (500 μM), 3 μM peptide, 5 nM PKN2): 2000 ± 1000 nM | PKN1 Maximal fold activation (PKN1 [6]): 14 fold | EC50 (PKN1 [6]): 5000 ± 1000 nM
Compound: phosphatidylinositol-4,5-bisphosphate [PIP2]
